Results on three molecules are retold here after ChEMBL document CHEMBL5726441, “Isoindolone derivatives” (2017).

For orientation: Ki means the equilibrium dissociation constant of an inhibitor or competing ligand from its target.

The assay deals with Bromodomain-containing protein 4 (Homo sapiens, UniProt O60885). Nature of the assay: TR-FRET Assay: Compound dilution series were prepared in DMSO via a 3-fold serial dilution from 2.5 mM to 42 nM. Compounds were then diluted 6:100 in assay buffer (20 mM Sodium Phosphate, pH 6.0, 50 mM NaCl, 1 mM EDTA, 0.01% Triton X-100, 1 mM DTT) to yield 3× working solutions. Six microliters (μL) of the working solution was then transferred to white, low-volume assay plates (Costar #3673). A 1.5× assay mixture containing His-tagged bromodomain, Europium-conjugated anti-His antibody (Invitrogen PV5596) and the Alexa-647-conjugated probe molecule was also prepared. Twelve μL of this solution were added to the assay plate to reach a final volume of 18 μL. The final concentration of 1× assay buffer contains 2% DMSO, 50 μM−0.85 nM compound, 8 nM bromodomain, 1 nM antibody and 100 or 30 nM probe (for BDI or BDII, respectively). After a one-hour incubation at room temperature, TR-FRET ratios were determined using an Envision multilabel plate reader (Ex 340, Em 495/520).TR-FRET data were normalized to the means of 24 no-compound controls (high) and 8 controls containing 1 μM un-labeled probe (low). Percent inhibition was plotted as a function of compound concentration and the data were fit with the 4 parameter logistic equation to obtain IC50s Inhibition constants (Ki) were calculated from the IC50s, probe Kd and probe concentration. Typical Z′ values were between 0.65 and 0.75. The minimum significant ratio was determined to evaluate assay reproducibility (Eastwood et al., (2006) J Biomol Screen, 11: 253-261).

`Cc1[nH]c(-c2ccccc2Oc2ccccc2)c2c1C(=O)CC(CC(C)C)C2` (stereo not drawn): the inhibition constant Ki is 3.62 µM.

On to `Cc1[nH]c(-c2ccccc2CN2C(=O)c3ccccc3C2=O)c2c1C(=O)CCC2`, for which the inhibitory constant (Ki) is 6.22 µM.

For the molecule `Cc1[nH]c(-c2cccc3ccccc23)c2c1C(=O)CCC2`, the inhibition constant Ki was 0.943 µM.
